# Assay results as given in patent US20220346372A1, “Compositions For Preparing Microemulsion, Microemulsion, Method For Producing Composition And Microemulsion, And Use Of Mircoemulsion” (Moresco Corporation, priority 2019, published 2022).
# Assay: LogP, flask shaking method (OECD guideline, n-octanol/water)
# Type: physicochemical
# Settings: 1-octanol-water partition coefficient
# Text: Here, LogP is a common logarithmic value of a 1-octanol-water or 1-octanol-buffer partition coefficient of a chemical substance. In the present specification, LogP is a value measured by a flask shaking method based on OECD GUIDELINE FOR THE TESTING OF CHEMICALS, “Partition Coefficient (n-octanol/water): Shake Flask Method”. A chemical substance having a higher LogP has a higher degree of lipophilicity. In other words, a chemical substance having a higher LogP has a higher degree of fat-solubility.
row,Compound,LogP of the poorly water-soluble functional component
1,"Cc1c(C)c2c(c(C)c1O)CCC(C)(CCCC(C)CCCC(C)CCCC(C)C)O2 (racemic) [tocopherol, DL-α-Tocopherol]",8.84
2,"COc1ccc2c(c1)c(CC(=O)O)c(C)n2C(=O)c1ccc(Cl)cc1 [indomethacin, Indomethacin]",4.25
3,Tocotrienol,7.68

# Same assay, conditions: 1-octanol-water partition coefficient, read-out: LogP of the poorly water-soluble functional component
row,Compound,logP
1,"CC1CCC(C(C)C)C(O)C1 (single isomer, unassigned; (-)) [menthol, (−)-Menthol]",2.68
2,"COC1=C(OC)C(=O)C(C/C=C(\C)CC/C=C(\C)CC/C=C(\C)CC/C=C(\C)CC/C=C(\C)CC/C=C(\C)CC/C=C(\C)CC/C=C(\C)CC/C=C(\C)CCC=C(C)C)=C(C)C1=O [CoQ10, coenzyme Q10]",11
3,"C[C@]12CC[C@H]3[C@@H](CCC4=CC(=O)CC[C@@]43C)[C@@H]1CC[C@@H]2O [testosterone, Testosterone]",2.99
4,"CC(=O)O[C@H]1C(=O)[C@@]2(C)[C@H]([C@H](OC(=O)c3ccccc3)[C@]3(O)C[C@H](OC(=O)[C@H](O)[C@@H](NC(=O)c4ccccc4)c4ccccc4)C(C)=C1C3(C)C)[C@]1(OC(C)=O)CO[C@@H]1C[C@@H]2O [paclitaxel, Paclitaxel]",3.2
5,"COc1cc(/C=C/C(=O)CC(=O)/C=C/c2ccc(O)c(OC)c2)ccc1O [curcumin, Curcumin]",3.62
6,"Clc1ccc(C(c2ccc(Cl)cc2)C(Cl)(Cl)Cl)cc1 [DDT, dichlorodiphenyltrichloroethane]",6.5
7,"COc1ccc2c(c1)c(CC(=O)O)c(C)n2C(=O)c1ccc(Cl)cc1 [indomethacin, Indomethacin]",4.25
